According to patent publication US11702479B2, “Anti-jagged antibodies and methods of use” (Genentech, Inc., priority 2012, dated 2023):

System: Jagged1-induced signaling through Notch1
Experiment: Co-culture Notch reporter (luciferase) assay, Jagged1-induced
Assay type: cell-based
Conditions: NIH-3T3 co-culture; antibody 0.4-50 μg/ml (Example 4) or 0.016-50 μg/ml (Example 5)
Method: To determine whether anti-Jagged antibodies can act as antagonists of Jagged-induced Notch signaling, co-culture experiments were performed essentially as described by Wu et al., Nature 464, 1052-1057 (15 April 2010). NIH-3T3 cells engineered to express Jagged1, as the Notch ligand, were co-cultured with NIH 3T3 cells that stably express Notch1 and that were transiently transfected to express a Notch-responsive TP-1 (12× CSL) firefly luciferase reporter and a constitutively expressed Renilla luciferase reporter (pRL-CMV, Promega).
Antibodies C and D, and their respective affinity-matured descendants, bind to both human and murine Jagged1, and human and murine Jagged2 (e.g., FIG. 10A). […] Signaling was induced by Jagged1 (FIG. 13B, dark gray columns) or by Jagged2 (FIG. 13B, light gray columns) and inhibition was determined as described in Example 4 using the antibodies at concentrations of 0.016-50 μg/ml. Controls included cultures that were not stimulated with ligand and not treated with antibody ([…], Untreated), not stimulated with ligand (FIG. 13B, No Stimulation or 3T3P), treated with 5-10 μg/ml isotype control antibody (FIG. 13B, agD or gD), stimulated with ligand but not treated with antibody (Stim/no AB or No Ab), treated with 5 μM of the gamma-secretase inhibitor DAPT or the DAPT vehicle control of DMSO.

C[C@H](NC(=O)Cc1cc(F)cc(F)c1)C(=O)N[C@H]1N=C(c2ccccc2)c2ccccc2N(C)C1=O [Compound E]
inhibition of Jagged1-induced Notch reporter expression: reduced to background levels
